{
  "source": "patent US6017958A",
  "about": "“Method of treating malignant tumors with thyroxine analogues having no significant hormonal activity” (Octamer, Inc., priority 1997, dated 2000)",
  "key": {"SK-Br-3 (mammary cancer)": {"tested_on": "SK-Br-3 (mammary cancer)", "assay": "Cytocidal action/growth inhibition, SK-Br-3", "type": "cell-based", "details": "Homo sapiens", "description": "Seven human cancer cell lines were obtained from the American Tissue Culture Collection (Rockville, Md.) and maintained in the recommended growth media. Cells were seeded into wells (2 cm^2) at a density of 2×10^4 cells/cm^2. Various concentrations of Compounds 1-13 were added to the media at the time of seeding.\nThe cultures were incubated for 72 hours at 37° C. (5% CO2 atmosphere). Following incubation, cells were detached with trypsin and counted in a hemocytometer.\nI100 designates the concentration at which no viable cells remained; I50 the concentration at which 50% viable cells remained, as compared to a control.\nE-ras 20 cells were cultured as reported, Bauer et al., 1996, \"Modification of growth related enzymatic pathways and apparent loss of tumorigenicity of a ras-transformed bovine endothelial cell line by treatment with 5-iodo-6-amino-1,2-benzopyrone (INH2 BP)\" Intl. J. Oncol. 8:239-252; HT-144 (melanoma), DU-145 (prostatic cancer), HeLa (cervical cancer), HL 60 (promyelocytic leukemia), MDA-MB-231 (mammary cancer), SK-Br-3 (mammary cancer), T47D (ductal mammary cancer), A559 (lung cancer) were obtained from American Type Culture Collection (Rockville, Md.) and cultured in prescribed media. The effect of DIME was tested in cultures with a starting cell density of 2×10^4 cells per cm^2 and comparison of the effect of DIME on cell growth (intact cells identified by Trypan blue exclusion) was assayed by direct cell counting after trypsinization in a hemocytometer 72 hours after drug addition.\nFor DIME-exposure experiments cells were seeded into 2 cm^2 wells at a density of 2×10^4 cells/cm^2. DIME at various concentrations was added to the medium at the time of seeding. The cell cultures were then incubated for 3 days (37° C. in 5% at CO2 atmosphere)."}, "[1]": {"tested_on": "E-ras 20 cells (E-ras transformed bovine endothelial cells)", "assay": "Tumorigenicity of pretreated E-ras 20 cells in athymic nude mice", "type": "in vivo, bovine cells in nude mice", "details": "10 μM", "description": "E-ras transformed bovine endothelial cells (Bauer et al., 1996, Intl. J. Oncology 8:239-252) were exposed to 10 μM DIME for […]. The DIME-treated cells (10^5 or 10^6 cells/100 μL) were injected subcutaneously into nude mice and tumor progression followed for 25 days.\nTumorigenicity of E-ras 20 Cells in athymic nude mice was assayed as described previously. Bauer et al., 1996, \"Modification of growth related enzymatic pathways and apparent loss of tumorigenicity of a ras-transformed bovine endothelial cell line by treatment with 5-iodo-6-amino-1,2-benzopyrone (INH2 BP)\" Intl. J. Oncol. 8:239-252. The in vivo antitumorigenic action of DIME was assayed on athymic mice inoculated with 10^6 MDA-MB-231 cells, as in the tumorgenicity assay. In about 10-14 days when subcutaneous tumors appeared, DIME treatment consisting of p.o. administration of DIME suspension (once a day) was commenced and continued for 28-32 days as reported, Kun et al., 1996, \"Induction of tumor apotosis by methyl-3,5-diiodo-4-(4'-methoxyphenoxy) benzoate (DIME)\", Abstract No. 102, Int. J. Oncol. 9:supplement 829.\nThe structural specificity of DIME and its homologs and analogs can be assessed by examining Table 7 and Table 8. We have prepared 17 novel structural analogs of DIME and compared the antitumor activity of 10 of the compounds (Table 8) which appears sufficient to draw some general conclusions. The biological assay chosen was the determination of antitumorigenic action of the drugs on the in vivo tumorigenicity of E-ras cells in nude mice, Bauer et al., 1996, \"Modification of growth related enzymatic pathways and apparent loss of tumorigenicity of a ras-transformed bovine endothelial cell line by treatment with 5-iodo-6-amino-1,2-benzopyrone (INH2 BP)\" Intl. J. Oncol. 8:239-252. E-ras 20 cells (10^5 or 10^6) were incubated with 10 μM DIME or analogs for 4 days, then 10^5 and 10^6 cells were inoculated subcutaneously into nude mice (5 per test) and rates of tumor formation quantitated by direct tumor volume measurements (cf. 2). […] Identical antitumorigenic tests were performed with nine DIME analogs and taking the effect of DIME as 100% (comparing tumor sizes at day 25) the antitumor efficacy was calculated as percent of DIME activity. […] Results summarized in Table 8 illustrate that substituents in R1 and R2 determine antitumor efficacy.\nThe efficacy of DIME analogs on in vivo tumorigenicity of Eras 20 cells i\nathymic mice was compared to that of DIME (compound 1) which was taken as\n100, determining the size of tumor reduction at day 25. Pretreatment with\nDIME or its analogs (Table 7) was with 10 μM for 4 days prior to s.c."}, "In vivo toxicity": {"assay": "In vivo toxicity", "parameters": "species or system mouse", "description": "Ten nude mice were administered a daily oral dose of ^14 C-labeled DIME (Compound 1) (1.0 g/kg, 0.1 mL in corn oil) for a period of 12-15 days."}, "A-549 cells": {"tested_on": "A-549 cells", "assay": "DIME action on A-549 cells with esterase inhibitor BNPP", "type": "cell-based, human", "details": "with bis[p-nitrophenyl] phosphate"}, "MDA-MB-231 xenografts": {"tested_on": "MDA-MB-231 xenografts", "details": "cited from earlier work"}},
  "note": "“Also recorded” adds a separate entry of the source. Where two headings read alike, the source gives them in different places.",
  "data": [
    {"smiles": "COC(=O)c1cc(I)c(Oc2ccc(OC)cc2)c(I)c1", "note": "[Compound 1, Methyl 3,5-diiodo-4-(4'-methoxyphenoxy)benzoate]", "values": [
      {"measurement": "IC50", "setting": "SK-Br-3 (mammary cancer); SK-BR-3, 72 h, day 3, Table 11, read-out: I50 (day 3)", "value": 600, "unit": "nM"},
      {"measurement": "IC50", "setting": "SK-Br-3 (mammary cancer); SK-BR-3, 72 h, Table 4, read-out: I50", "value": 600, "unit": "nM"},
      {"measurement": "IC100", "setting": "SK-Br-3 (mammary cancer); SK-BR-3, 72 h, Table 4, read-out: I100 (no viable cells remained)", "value": 5, "unit": "µM"},
      {"measurement": "tumorigenicity of pretreated cells", "setting": "[1]; 3 days pretreatment, followed 25 days", "value": "nearly completely abolished tumorigenicity"},
      {"measurement": "tumor formation from pretreated cells (FIG. 4)", "setting": "[1]; 4 days pretreatment", "value": "tumor formation was completely abrogated"},
      {"measurement": "Efficacy (inhibition of E-ras 20 tumorigenicity, DIME = 100)", "setting": "[1]; 4 days pretreatment, tumor size at day 25", "value": 100, "unit": "%"},
      {"measurement": "ill effects", "setting": "In vivo toxicity; 1.0 g/kg daily oral, 12-15 days, nude mice, listed as DIME", "value": "No ill effects were observed; also recorded: produced no ill effects"},
      {"measurement": "macroscopically observed toxicity in vivo", "setting": "In vivo toxicity; in vivo", "value": "no macroscopically observed toxicity in vivo"},
      {"measurement": "cell killing with esterase inhibition", "setting": "A-549 cells", "value": "much more effective cell killing"},
      {"measurement": "dose-response of antitumor effect", "setting": "MDA-MB-231 xenografts; 0.25 g/kg and 1.0 g/kg", "value": "had the same antitumor effect"},
      {"measurement": "tumor regression", "setting": "MDA-MB-231 xenografts; 25-35 days, 0.25 to 1.0 g/kg daily per os, nude mice (Kun et al., 1996)", "value": "70-85%"}
    ]}
  ]
}
